≈ marks a conversion by molar mass, not a printed value. Calls of active or inactive are those of the source. No cut-off for these calls is given here.
Experiments:
Klebsiella pneumoniae = experiment: Antibacterial activity against Klebsiella pneumoniae […] assessed as inhibition of bacterial growth incubated for 24 hrs by broth dilution method; assay type: functional
Pseudomonas aeruginosa = experiment: Antibacterial activity against Pseudomonas aeruginosa […] assessed as inhibition of bacterial growth incubated for 24 hrs by broth dilution method; assay type: functional
Escherichia coli = experiment: Antibacterial activity against Escherichia coli ATCC 11775 assessed as inhibition of bacterial growth incubated for 24 hrs by broth dilution method; assay type: functional
Staphylococcus aureus [1] = experiment: Antibacterial activity against Methicillin-resistant Staphylococcus aureus USA300 infected in mouse skin infection model assessed as reduction in number of bacteria at 10 mg/kg, sc administered every 12 hrs for 3 days; assay type: functional
[2] = Cytotoxicity against human L02 cells assessed as survival rate incubated for 24 hrs by MTT assay; assay type: toxicity, cell-based; design: concentration or dose not given beside the values; settings: read-out: Survival
Staphylococcus aureus [3] = experiment: Synergistic antibacterial activity against Methicillin-resistant Staphylococcus aureus USA300 assessed as oxacillin MIC incubated for 24 hrs by checkboard method (reference value: 2 microg/ml); assay type: functional
Staphylococcus aureus [4] = experiment: Antibacterial activity against Methicillin-resistant Staphylococcus aureus USA300 assessed as inhibition of bacterial growth incubated for 24 hrs by broth dilution method; assay type: functional
Staphylococcus aureus [5] = experiment: Inhibition of staphyloxanthin biosynthesis in Methicillin-resistant Staphylococcus aureus ATCC 3392 assessed as reduction in 4,4-diaponeurosporenic acid formation at 0.125 to 0.625 times MIC by nanodrop spectrophotometer analysis; assay type: functional, organism-based
Cell membrane [6] = experiment: Induction of cell membrane damage in Staphylococcus aureus USA300 assessed as increase in red fluorescence intensity at 2 times MIC by confocal laser scanning microscopic analysis; assay type: cell membranes
Staphylococcus aureus [7] = experiment: Additive antibacterial activity against Methicillin-resistant Staphylococcus aureus USA300 assessed as doxycycline MIC incubated for 24 hrs by checkboard method(reference value: 0.125 microg/ml); assay type: functional
Staphylococcus aureus [8] = experiment: Antibacterial activity against Methicillin-resistant Staphylococcus aureus USA300 assessed as decrease in number of colonies incubated for 0.5 hrs by time-kill kinetics assay; assay type: functional, organism-based
Cell membrane [9] = experiment: Induction of inner membrane permeabilization in Staphylococcus aureus USA300 assessed as increase in fluorescence intensity at 1 times MIC incubated for 90 mins by SYTOX staining based analysis
[10] = Cytotoxicity against mouse RAW264.7 cells assessed as survival rate incubated for 24 hrs by MTT assay; assay type: toxicity, cell-based; design: concentration or dose not given beside the values; settings: read-out: Survival
Cell membrane [11] = experiment: Induction of cell membrane damage in Staphylococcus aureus USA300 assessed as intracellular ATP leakage at 1 to 8 times MIC by confocal laser scanning microscopic analysis; assay type: cell membranes
Staphylococcus aureus [12] = experiment: Antibiofilm activity against Methicillin-resistant Staphylococcus aureus USA300 assessed as biofilm eradication at 32 times MIC by crystal violet staining based assay; assay type: functional
Cell membrane [13] = experiment: Induction of cell membrane damage in Staphylococcus aureus USA300 assessed as nucleic acid leakage at 1 to 2 times MIC by confocal laser scanning microscopic analysis; assay type: cell membranes
Staphylococcus aureus [14] = experiment: Antibiofilm activity against Methicillin-resistant Staphylococcus aureus USA300 assessed as inhibition of biofilm formation at 0.25 times MIC by crystal violet staining based assay; assay type: functional; design: scale not given: the % may be the effect or the level left
Staphylococcus aureus [15] = experiment: Induction of morphological changes in Staphylococcus aureus USA300 assessed as appearance of wrinkled cell surface at 2 to 4 times MIC by SEM analysis; assay type: functional, organism-based
Staphylococcus aureus [16] = experiment: Antibiofilm activity against Methicillin-resistant Staphylococcus aureus USA300 assessed as inhibition of biofilm formation at 0.5 times MIC by crystal violet staining based assay; assay type: functional; design: scale not given: the % may be the effect or the level left
Staphylococcus aureus [17] = experiment: Synergistic antibacterial activity against Methicillin-resistant Staphylococcus aureus USA300 assessed as fractional inhibitory concentration index in presence of amoxicillin by checkboard method; assay type: functional
Staphylococcus aureus [18] = experiment: Antibacterial activity against methicillin-resistant Staphylococcus aureus ATCC 3392 assessed as inhibition of bacterial growth incubated for 24 hrs by broth dilution method; assay type: functional
Staphylococcus aureus [19] = experiment: Induction of resistance development in methicillin resistant Staphylococcus aureus USA300 at 25 to 150 microg/ml measured upto 65 days; assay type: functional; settings: dose 25-150 µg/ml, time <= 65.0 day
Staphylococcus aureus [20] = experiment: Synergistic antibacterial activity against Methicillin-resistant Staphylococcus aureus USA300 infected in mouse skin infection model assessed as reduction in number of bacteria at 10 mg/kg, sc in presence of oxacillin administered every 12 hrs for 3 days; assay type: functional; settings: time 3 day
Cell membrane [21] = experiment: Induction of inner membrane permeabilization in Staphylococcus aureus USA300 assessed as increase in fluorescence intensity incubated for 90 mins by SYTOX staining based analysis; assay type: cell membranes
Staphylococcus aureus [22] = experiment: Selectivity index, ratio of MBC for bactericidal against methicillin-resistant Staphylococcus aureus ATCC 3392 to MIC for antibacterial activity against methicillin-resistant Staphylococcus aureus ATCC 3392; assay type: functional
Cell membrane [23] = experiment: Induction of inner membrane permeabilization in Staphylococcus aureus USA300 assessed as increase in fluorescence intensity at 2 times MIC incubated for 40 mins by SYTOX staining based analysis; assay type: cell membranes
Staphylococcus aureus [24] = experiment: Synergistic antibacterial activity against Methicillin-resistant Staphylococcus aureus USA300 assessed as fractional inhibitory concentration index in presence of oxacillin by checkboard method; assay type: functional
Cell membrane [25] = experiment: Induction of cell membrane damage in Staphylococcus aureus USA300 assessed as intracellular ATP leakage at 16 times MIC by confocal laser scanning microscopic analysis; assay type: cell membranes
Staphylococcus aureus [26] = experiment: Additive antibacterial activity against Methicillin-resistant Staphylococcus aureus USA300 assessed as fractional inhibitory concentration index in presence of doxycycline by checkboard method; assay type: functional
[27] = Toxicity in mouse assessed as change in body weight at 10 mg/kg, sc administered every 12 hrs for 4 days; assay type: organism-based; settings: in vivo, 96 h, time 4 day
Staphylococcus aureus [28] = experiment: Induction of resistance development in methicillin resistant Staphylococcus aureus USA300 assessed as fold increase in MIC measured upto 65 days; assay type: functional; settings: time <= 65.0 day
Staphylococcus aureus [29] = experiment: Inhibition of staphyloxanthin biosynthesis in Methicillin-resistant Staphylococcus aureus ATCC 3392 assessed as reduction in 4,4-Diaponeurosporene formation at 0.125 to 0.625 times MIC by nanodrop spectrophotometer analysis; assay type: functional, organism-based
Staphylococcus aureus [30] = experiment: Inhibition of staphyloxanthin biosynthesis in Methicillin-resistant Staphylococcus aureus ATCC 3392 assessed as reduction in 4,4-Diapophytoene formation at 0.125 to 0.625 times MIC by nanodrop spectrophotometer analysis; assay type: functional, organism-based
Staphylococcus aureus [31] = experiment: Synergistic antibacterial activity against Methicillin-resistant Staphylococcus aureus USA300 assessed as amoxicillin MIC incubated for 24 hrs by checkboard method (reference value: 8 microg/ml); assay type: functional
Staphylococcus aureus [32] = experiment: Inhibition of staphyloxanthin biosynthesis in Methicillin-resistant Staphylococcus aureus ATCC 3392 assessed as reduction in Staphyloxanthin formation at 0.125 to 0.625 times MIC by nanodrop spectrophotometer analysis; assay type: functional, organism-based
Cell membrane [33] = experiment: Induction of cell membrane damage in Staphylococcus aureus USA300 assessed as nucleic acid leakage at 4 to 8 times MIC measured for 3 hrs by confocal laser scanning microscopic analysis; assay type: cell membranes
Staphylococcus aureus [34] = experiment: Bactericidal activity against methicillin-resistant Staphylococcus aureus ATCC 3392 assessed as inhibition of bacterial growth incubated for 24 hrs by broth dilution method; assay type: functional
Staphylococcus aureus [35] = experiment: Antibacterial activity against Methicillin-resistant Staphylococcus aureus USA300 assessed as decrease in number of colonies at 0.5 times MIC incubated for 2 to 5 hrs by time-kill kinetics assay; assay type: functional, organism-based; settings: time 2-5 hrs
Staphylococcus aureus [36] = experiment: Bactericidal against methicillin-resistant Staphylococcus aureus ATCC 4330 assessed as inhibition of bacterial growth incubated for 24 hrs by broth dilution method; assay type: functional
Staphylococcus aureus [37] = experiment: Induction of morphological changes in Staphylococcus aureus USA300 assessed as appearance of broken cell surface at 2 to 4 times MIC by SEM analysis; assay type: functional, organism-based
Staphylococcus aureus [38] = experiment: Antibacterial activity against Methicillin-resistant Staphylococcus aureus USA300 assessed as decrease in number of colonies at 1 to 4 times MIC incubated upto 8 hrs by time-kill kinetics assay; assay type: functional, organism-based
Staphylococcus aureus [39] = experiment: Antibacterial activity against methicillin-resistant Staphylococcus aureus ATCC 4330 assessed as inhibition of bacterial growth incubated for 24 hrs by broth dilution method; assay type: functional
Staphylococcus aureus [40] = experiment: Antibiofilm activity against Methicillin-resistant Staphylococcus aureus USA300 assessed as biofilm eradication at 16 times MIC by crystal violet staining based assay; assay type: functional

CN[C@H](CC(C)C)C(=O)N[C@H]1C(=O)N[C@@H](CC(N)=O)C(=O)N[C@H]2C(=O)N[C@H]3C(=O)N[C@H](C(=O)N[C@H](C(=O)O)c4cc(O)cc(O)c4-c4cc3ccc4O)[C@H](O)c3ccc(c(Cl)c3)Oc3cc2cc(c3O[C@@H]2O[C@H](CO)[C@@H](O)[C@H](O)[C@H]2O[C@H]2C[C@](C)(N)[C@H](O)[C@H](C)O2)Oc2ccc(cc2Cl)[C@H]1O [VANCOMYCIN]
MIC (Klebsiella pneumoniae): > 64 µg/mL
MIC (Pseudomonas aeruginosa): > 64 µg/mL
MIC (Escherichia coli): > 64 µg/mL
Activity (Staphylococcus aureus [1]; time 3.0 day): inactive

CCCCCCC(=O)c1c(O)cc(O)c(C(=O)CCCCCC)c1O
viability at 24 h [2]: 75%
MIC (Staphylococcus aureus [3]): 0.125 µg/mL
MIC (Staphylococcus aureus [4]): 0.5 µg/mL (≈ 1.43 µM)
MIC (Klebsiella pneumoniae): > 64 µg/mL
inhibition (Staphylococcus aureus [5]): Active
Activity (Cell membrane [6]): Active
MIC (Staphylococcus aureus [7]): 0.25 µg/mL
Activity (Staphylococcus aureus [8]): Dose-Dependent Effect
Activity (Cell membrane [9]): Active
viability at 24 h [10]: 76%
Activity (Cell membrane [11]): Active
MIC (Pseudomonas aeruginosa): > 64 µg/mL
Activity (Staphylococcus aureus [12]): ~50%
Activity (Cell membrane [13]): inactive
Activity (Staphylococcus aureus [14]): 58%
Activity (Staphylococcus aureus [15]): Active
Activity (Staphylococcus aureus [16]): 95%
fractional inhibitory concentration index (FICI) (Staphylococcus aureus [17]): 0.312
MIC (Staphylococcus aureus [18]): 1 µg/mL (≈ 2.85 µM)
Activity (Staphylococcus aureus [19]): Active
Activity (Staphylococcus aureus [20]): 2.5 log10CFU/g
Activity (Cell membrane [21]): Dose-Dependent Effect
MIC (Escherichia coli): > 64 µg/mL
Selectivity Index (Staphylococcus aureus [22]): 1
Activity (Cell membrane [23]): Active
fractional inhibitory concentration index (FICI) (Staphylococcus aureus [24]): 0.375
Activity (Cell membrane [25]): 70%
fractional inhibitory concentration index (FICI) (Staphylococcus aureus [26]): 0.75
Activity [27]: Non-Toxic
fold change (FC) (Staphylococcus aureus [28]): 256
inhibition (Staphylococcus aureus [29]): Active
inhibition (Staphylococcus aureus [30]): inactive
MIC (Staphylococcus aureus [31]): 0.125 µg/mL
inhibition (Staphylococcus aureus [32]): Active
Activity (Cell membrane [33]): Active
MBC (Staphylococcus aureus [34]): 1 µg/mL (≈ 2.85 µM)
Activity (Staphylococcus aureus [35]): Active
MBC (Staphylococcus aureus [36]): 1 µg/mL (≈ 2.85 µM)
Activity (Staphylococcus aureus [37]): Active
Activity (Staphylococcus aureus [38]): Active
MIC (Staphylococcus aureus [39]): 0.5 µg/mL (≈ 1.43 µM)
Activity (Staphylococcus aureus [1]; time 3 day): 1.5 log10CFU/g
Activity (Staphylococcus aureus [40]): 37%
